Each block holds one molecule with its values, some of them ahead of it.
Experiments:
[1] = test system: aorta of insulin-resistant rats; assay: Vasorelaxing effect in vitro on isolated aorta of insulin-resistant (fructose-rich diet) rats, precontracted with phenylephrine, with or without LNNA; format: cell-based, rat; settings: for % Relaxation, Aorta with LNNA / % Relaxation, Aorta Without LNNA: phenylephrine 10 μM precontracted, percentage with respect to non insulin-resistant controls; for vasorelaxing effect in conditions of experimental diabetes (in words): aorta of insulin-resistant rats, in the presence and in absence of LNNA
Description: To evaluate the strengthening effect of the drugs of the invention on the antidiabetic activity of insulin, animals (rats) are treated with a fructose rich diet (Am. J. Physiol. 275, R788-R792, 1998). In this way an insulinic resistance is induced in the animals.
The pharmacological test is a test in vitro and consists in determining the vasorelaxing activity induced by the products of the invention, measured on an isolated vessel (aorta) taken from animals treated as above mentioned. The test in vitro is carried out both in the presence and in absence of LNNA (N-nitro-L-Arginine), which is an irreversible inhibitor of the nitric oxide synthethases, to verify if the vasorelaxing effect depends on the protective endogenous substances (nitric oxide).
The capability of the compounds of the invention to exert a vasorelaxing effect both in the presence and in absence of vasoprotective substances in such conditions of experimental diabetes, (animals with a fructose rich diet, and treated with or without LNNA), is an index which allows to evaluate the antidiabetic action of the tested compound.
In the pharmacological experiment isolated vessels are used, taken from rats which have developed, as said, an insulinic resistance condition induced by administering for 4 weeks a fructose rich diet.
Male Sprague Dawley rats having an average weight equal to 150-200 g were sacrificed and bled. The abdomi-nal aorta was removed and suitably prepared for determining the myorelaxing activity in vitro according to the method described by Vogel G. H. et al., Drug Discovery Evaluation-Pharmacological Assays page 32, 1996.
A part of the specimen is treated with LNNA.
The tissues are precontracted with phenylephrine (10 μM) and the relaxation was determined in the presence or in absence of the compounds of the invention or of the reference standards. […] The results are reported in Table 1 and are expressed as a percentage with respect to the vasorelaxing effect measured in the controls.

SMILES: CC(=O)Oc1ccccc1C(=O)OCc1cccc(CO[N+](=O)[O-])n1.Cl [Ex. 1, 2-acetoxybenzoic acid 6-(nitroxymethyl)-2-methylpyridinyl ester hydrochloride]
- % Relaxation, Aorta with LNNA ([1]; concentration 10^−5 M): 70%
- % Relaxation, Aorta Without LNNA ([1]; concentration 10^−5 M): 93%

SMILES: CC(=O)Oc1ccccc1C(=O)Oc1cccc(CO[N+](=O)[O-])c1 [Ex. 2, 3-nitrooxymethylphenyl ester of the 2-acetoxybenzoic acid]
- % Relaxation, Aorta with LNNA ([1]; concentration 10^−4 M): 70%
- % Relaxation, Aorta Without LNNA ([1]; concentration 10^−4 M): 70%

SMILES: COc1ccc2c(c1)c(CC(=O)Oc1cccc(CO[N+](=O)[O-])c1)c(C)n2C(=O)c1ccc(Cl)cc1 [Ex. 3 comp., 1-(4-chlorobenzoyl)-5-methoxy-2-methyl-3-indolacetic acid 3′-(nitroxymethyl)phenyl ester, reference compound]
- vasorelaxing effect in conditions of experimental diabetes (in words) [1]: did not result active
- % Relaxation, Aorta with LNNA ([1]; concentration 10^−6 M): 20%
- % Relaxation, Aorta Without LNNA ([1]; concentration 10^−6 M): 20%

- melting point: 86 to 88 °C
SMILES: CC(=O)Oc1ccccc1C(=O)Oc1ccc(CO[N+](=O)[O-])cc1 [Ex. 6, 2-(acetyloxy)benzoic acid 4-(nitroxymethyl) phenyl ester]
- % Relaxation, Aorta with LNNA ([1]; concentration 10^−5 M): 65%
- % Relaxation, Aorta Without LNNA ([1]; concentration 10^−5 M): 90%

SMILES: CN(C)C(=N)N=C(N)N [Metformin, reference compound]
- vasorelaxing effect in conditions of experimental diabetes (in words) [1]: active only in the absence of the inhibitor of the NO synthesis
- % Relaxation, Aorta with LNNA ([1]; concentration 10^−4 M): 30%
- % Relaxation, Aorta Without LNNA ([1]; concentration 10^−4 M): 90%

— patent publication US7378437B2, “Drugs for diabetes” (NICOX S.A., priority 2000, dated 2008)
